The subject of data set [1] is Mus musculus. Kind of data set: Compound was evaluated for in vivo activity assessed by prevention of NMDA-induced lethality in mice (N= 10 animals). Format: functional.
The species named for data set [2] is Rattus norvegicus. Kind of data set: Compound was evaluated for the inhibition of glutamate-stimulated calcium influx (GSCI). Format: functional.
Data set [3] in a line: Partition coefficient determined using standard shake flask method at pH 7.4. Particulars: octanol/water. Format: physicochemical.
In data set [4] the target is Glutamate NMDA receptor. In words: Evaluated for their affinity at the PCP site for displacement of [3H]TCP in rat brain homogenates. Format: tissue-based. For orientation: Loss of bound radioactivity is the signal in a displacement assay; it reports binding, not function.
Data set [5] is filed under the species Rattus norvegicus. Kind of data set: Compound was evaluated for the inhibition of glutamate-stimulated calcium influx (GSCI); (N=1). Format: functional.
The target of data set [6] is Glutamate NMDA receptor (Rattus norvegicus) (UniProt P35439+Q00959+Q00960+Q00961+Q62645+Q8VHN2+Q9R1M7). In words: (§1) Percent inhibition at the PCP site for displacement of [3H]TCP in rat brain homogenates at […]. Format: tissue-based.
Data set [7] deals with Glutamate NMDA receptor. The description is as §1. Format: tissue-based.

Structures are written as SMILES.

Molecule `CN[C@@]12CCCC[C@@H]1Cc1ccccc12.CN[C@]12CCCC[C@H]1Cc1ccccc12` registered an ED50 in data set [1] of 0.58 mg/kg. For the same molecule, the IC50 came out at 100 nM in data set [2] and 30 nM in data set [4]. Further, in data set [3], the logD turned out to be 0.54.

Regarding `CN[C@@]12CC[C@@H](CN)C[C@@H]1Cc1ccccc12`, the 50% inhibitory concentration (IC50) worked out at 765000 nM in data set [5] and 1.84 nM in data set [4]. In data set [3], this molecule came in with a pH-dependent lipophilicity (logD) of -1.42.

In data set [4], `CNC12CCC(C)CC1Cc1ccccc12` (centres undefined) had an IC50 of 95 nM.

`c1ccc(CNC23CCCCCC2Cc2ccccc23)cc1` (centres undefined) had an inhibition in data set [6] of 6%.

`NC12CCC(CO)CC1Cc1ccccc12` (centres undefined): the logD in data set [3] is 0.86. Besides, in data set [4], the 50% inhibitory concentration (IC50) is 253 nM.

As to `CNC12CC=CCC1c1ccccc1C2` (centres undefined), the logD in data set [3] stood at 0.04. In addition, in data set [6], the inhibition is 0%.

Regarding `C[C@]12N[C@H](Cc3ccccc31)c1ccccc12` [DIZOCILPINE], the ED50 in data set [1] turned out to be 0.22 mg/kg. For the same molecule, the IC50 in data set [2] was 54 nM. For the same molecule, in data set [3], the logD came out at 2.1.

Regarding `c1ccc(CNC23CCCCC2Cc2ccsc23)cc1` (centres undefined), in data set [6], the inhibition came to 10%.

`CNC12CCCCC1Sc1ccccc12` (centres undefined): the figures for the 50% inhibitory concentration (IC50) in data set [5] and in data set [4] were 210 nM and 11.3 nM, respectively. Also, the 50% effect level in data set [1] (ED50) was put at a dose of 0.41 mg/kg.

The molecule `CNC12CCCC1Cc1ccccc12` (centres undefined) displayed a half-maximal inhibitory concentration (IC50) in data set [4] of 350 nM.

Molecule `NCC12CCCCC1c1ccccc1C2` (centres undefined) displayed an inhibition in data set [6] of 1%.

`CNCC12CCCCC1c1ccccc1C2` (centres undefined) returned an inhibition in data set [6] of 0%.

`C=C1c2ccccc2C2(NC)CCCCC12` (centres undefined): the logD in data set [3] stood at 0.76. The half-maximal inhibitory concentration (IC50) in data set [4] worked out at 528 nM.

In turn, `c1ccc(C2(N3CCCCC3)CCCCC2)cc1` [PHENCYCLIDINE] registered a 50% effective dose (ED50) in data set [1] of 0.55 mg/kg. In addition, the half-maximal inhibitory concentration (IC50) turned out to be 200 nM in data set [2] and 36.5 nM in data set [4]. Besides, in data set [3], the logD is 3.63.

For the molecule `CC[C@]1(c2ccccc2)OC[C@H]([C@@H]2CCCCN2)O1` [ETOXADROL], the IC50 in data set [4] stood at 107 nM.

Turning to `CC1CCCC2Cc3ccccc3C12N` (centres undefined), the half-maximal inhibitory concentration (IC50) in data set [4] was 159 nM.

As to `C=C1c2ccccc2C2(N)CCCCC12` (centres undefined), the inhibition in data set [6] turned out to be 4%.

As for `NC12CCCCCC1Cc1ccccc12` (centres undefined), the half-inhibitory concentration (IC50) in data set [4] was 304 nM.

For `CCNC12CCCCC1Oc1ccccc12` (centres undefined), the values for the IC50 in data set [5] and in data set [4] were 1800 nM and 141 nM, respectively. The molecule also showed an ED50 in data set [1] of 1.5 mg/kg.

`CNC12CCCCC1Cc1ccc(OC)cc12` (centres undefined): the values for the IC50 in data set [5] and in data set [4] were 160 nM and 22 nM, respectively. It took a dose of 0.51 mg/kg to reach the 50% effect level in data set [1] (ED50). The same molecule showed a logD in data set [3] of 0.65.

For the molecule `CNC12CCC(CO)CC1Cc1ccccc12` (centres undefined), the logD in data set [3] was found to be 0.17. The IC50 in data set [4] is 3940 nM.

In data set [3], `CNC[C@@H]1CC[C@@]2(NC)c3ccccc3C[C@H]2C1` registered a logD of -2.65. The molecule further displayed an inhibition in data set [6] of 0%.

`CN[C@]12CCCC[C@H]1Cc1ccccc12` yielded an ED50 in data set [1] of 0.1 mg/kg. Further, the IC50 is 120 nM in data set [2] and 9.9 nM in data set [4]. This molecule also registered a log distribution coefficient (logD) in data set [3] of 0.33.

Take `CNC12c3ccccc3CC1CCCC2C` (centres undefined): the half-maximal inhibitory concentration (IC50) worked out at 390 nM in data set [5] and 79 nM in data set [4]. The molecule also came in with a median effective dose (ED50) in data set [1] of 0.8 mg/kg.

Turning to `CCN[C@]12CCCC[C@H]1Cc1ccccc12`, the figures for the 50% inhibitory concentration (IC50) in data set [5] and in data set [4] were 61 nM and 55.2 nM, respectively. In data set [1], the ED50 was found to be 0.2 mg/kg.

Molecule `CNC12CCCCC1c1ccccc1C2` (centres undefined) yielded a logD in data set [3] of 0.62. For the same molecule, the inhibition in data set [6] is 0%.

Regarding `CNC12CCCCC1Cc1ccsc12` (centres undefined), in data set [1], it took a dose of 1.1 mg/kg to reach the 50% effect level (ED50). Moreover, the IC50 in data set [4] turned out to be 66 nM.

Regarding `CN[C@@]12CCCC[C@@H]1Cc1ccccc12`, the 50% effective dose (ED50) in data set [1] came out at 10 mg/kg. Further, the IC50 in data set [2] was found to be 2550 nM; in data set [4], 107 nM. Besides, the logD in data set [3] was found to be 0.43.

With `CNC12CCCCCC1Cc1ccccc12` (centres undefined), the results for the IC50 in data set [5] and in data set [4] were 1200 nM and 113 nM, respectively. In data set [3], this molecule displayed a pH-dependent lipophilicity (logD) of 0.66.

Regarding `N[C@]12CCCC[C@H]1Cc1ccccc12`, in data set [1], the 50% effect level (ED50) was put at a dose of 0.61 mg/kg. The figures for the half-maximal inhibitory concentration (IC50) in data set [2] and in data set [4] were 510 nM and 13.4 nM, respectively.

Turning to `CNC12CCCCC1Cc1ccc(O)cc12` (centres undefined), the IC50 in data set [5] was 140 nM; in data set [4] it was 16.5 nM. In data set [1], this molecule registered an ED50 of 0.99 mg/kg.

In data set [7], `NC12CCCC1Cc1ccccc12` (centres undefined) showed an IC50 of 5 nM. This molecule returned a logD in data set [3] of -0.28.

For `NC12CCCCC1c1ccccc1C2` (centres undefined), the pH-dependent lipophilicity (logD) in data set [3] turned out to be 0.3. This molecule displayed an inhibition in data set [6] of 0%.

On to `CNC12CCCCC1Cc1cc(OC)ccc12` (centres undefined), for which the pH-dependent lipophilicity (logD) in data set [3] is 0.21. In addition, the inhibition in data set [6] turned out to be 11%.

Consider `CCNC12CCCCC1Cc1c(C)cccc12` (centres undefined), for which the IC50 in data set [4] came out at 323 nM.

In data set [6], `c1ccc(CNC23CCCC2Cc2ccccc23)cc1` (centres undefined) came in with an inhibition of 4%.

As a reminder, the ED50 is the dose at which the effect has come halfway, by size or by number of responders. Low readings indicate greater potency, high ones weaker potency. Broadly, the IC50 is the midpoint of a concentration-inhibition curve. Broadly, the logD is the decadic logarithm of the distribution of all forms, ionised or not, between an organic phase and buffer at a given pH. For orientation: inhibition means the drop in the measured response relative to a control, in per cent. Read a high inhibition as strong suppression.

Source of the values: ChEMBL document CHEMBL1126612, “Synthesis and pharmacological evaluation of hexahydrofluorenamines as noncompetitive antagonists at the N-methyl-D-aspartate receptor” (J Med Chem, 1993).
